Reference: patent USRE41315E1, “Modulators of dopamine neurotransmission” (NSAB, Filial af NeuroSearch Sweden AB, priority 1999, dated 2010)
Structures can show the parent of a compound that is named as a salt.

Legend:
[1] = tested on: 3,4-dihydroxyphenyl-acetic acid (DOPAC) in the striatum; assay: In vivo test: neurochemistry, 3,4-dihydroxyphenyl-acetic acid in the striatum; conditions: rat, n=4
From the text: After the behavioral activity sessions the rats were decapitated and their brains rapidly taken out and put on an ice-cold petri-dish. The limbic forebrain, the striatum, the frontal cortex and the remaining hemispheral parts of each rat were dissected and frozen. Each brain part was subsequently analyzed with respect to its content of monoamines and their metabolites. The monoaminergic indices analyzed were dopamine (DA), 3,4-dihydroxyphenyl-acetic acid (DOPAC), homovanillic acid (HVA), 3-methoxytyramine (3-MT), serotonin (5-HT), 5-hydroxyindole acetic acid (5-HIAA), and noradrenaline (NA). All monoaminergic indices in the dissected tissue were analyzed by means of HPLC with electrochemical detection as described by Svensson K, et al., 1986, Naunyn-Schmiedeberg's Arch Pharmacol 334: 234-245 and references cited therein.

[2] = In vivo test: pharmacokinetics in the rat
Method: To determine oral availability (F); and plasma half life (t1/2) of test compounds of this invention experiments performed in the rat were undertaken. On day one rats were implanted with one catheter in the jugular vein and one catheter in the carotid artery under ketamine anesthesia. On day three test compound is injected the either orally or in the jugular vein catheter. Blood samples are collected during 8 hours from the arterial catheter. The blood samples were heparinized and centrifuged. Plasma is collected from the centrifuged samples and frozen. The levels of test compound were subsequently determined in each sample by means of gas chromatography mass spectrometry (Hewlett-Packard 5972MSD). […]

[3] = tested on: spontaneous behavior (locomotor activity); assay: In vivo test: behavior, spontaneous locomotor activity in non-habituated/nonpretreated rats; conditions: rat; for locomotor activity in nonpretreated rats: 100 μmol/kg s.c., 30-60 min
[4] = tested on: d-amphetamine induced hyperactivity; assay: In vivo test: behavior, d-amphetamine induced hyperactivity; conditions: rat, d-amphetamine pretreated, n=4
[5] = tested on: locomotor activity of habituated rats; assay: In vivo test: behavior, locomotor activity of habituated rats

## CCCN1CCN(c2ccc(Cl)c(C(F)(F)F)c2)CC1 (as salt: HCl)
other
  melting point: 268 °C

## CCCN1CCN(c2cc(C(F)(F)F)ccc2Cl)CC1 (as salt: HCl)
other
  melting point: 234 °C

## CCCN1CCN(c2ccc(F)c(C(F)(F)F)c2)CC1 (as salt: HCl)
other
  melting point: 238 °C

## CCCN1CCN(c2cc(F)cc(C(F)(F)F)c2)CC1 (as salt: HCl)
other
  melting point: 242 °C

## CCCN1CCC(c2ccc(Cl)c(C(F)(F)F)c2)CC1 (as salt: HCl) [Example 9, 4-(4-Chloro-3-trifluoromethyl-phenyl)-1-propyl-piperidine]
other
  melting point: 218 to 220 °C

## CCCN1CCN(c2ccc(Cl)c([N+](=O)[O-])c2)CC1 (as salt: HCl) [Example 19, 1-(4-Chloro-3-nitro-phenyl)-4-propyl-piperazine]
other
  melting point: 249 °C

## CCCN1[C@H](C)CN(c2ccc(Cl)c(C(F)(F)F)c2)C[C@@H]1C (as salt: HCl) [Example 33, cis-4-(4-Chloro-3-trifluoromethyl-phenyl)-2,6-dimethyl-1-propyl-piperazine]
other
  melting point: 256 °C

## CCCN1[C@H](C)CN(c2ccc(F)c(C(F)(F)F)c2)C[C@@H]1C (as salt: HCl) [Example 34, cis-4-(4-Fluoro-3-trifluoromethyl-phenyl)-2,6-dimethyl-1-propyl-piperazine]
other
  melting point: 221 °C

## CCCN1[C@H](C)CN(c2ccc(Cl)c(Cl)c2)C[C@@H]1C (as salt: HCl) [Example 35, cis-4-(3,4-dichloro-phenyl)-2,6-dimethyl-1-propyl-piperazine]
other
  melting point: 225 °C

## CCCN1CCC(c2ccc(F)c(C(F)(F)F)c2)CC1 (as salt: HCl) [Example 43, 4-(4-Fluoro-3-trifluoromethylphenyl)-1-propyl-piperidine]
other
  melting point: 195 to 197 °C

## CCCN1CCC(c2cc(F)cc(C(F)(F)F)c2)CC1 (as salt: HCl) [Example 44, 4-(3-Fluoro-5-trifluoromethylphenyl)-1-propyl-piperidine]
other
  melting point: 215 °C

## CCCN1CCN(c2cccc(C(F)(F)F)c2)CC1 [1-propyl-4-(3-trifluoromethyl-phenyl)-piperazine, reference compound]
[1]; 50 μmol/kg s.c.
  3,4-dihydroxyphenyl-acetic acid in the striatum: 3358±162 ng/g tissue
[2]
  oral availability (F): 9,5%
[3]; 50 μmol/kg s.c., n=4
  behavioral inhibition (locomotor activity): 271±137 cm/60 min

## CCCN1CCC(c2ccc(Cl)c(C(F)(F)F)c2)CC1 [Example 9, 4-(4-Chloro-3-trifluoromethyl-phenyl)-1-propyl-piperidine]
[1]; 50 μmol/kg s.c.
  3,4-dihydroxyphenyl-acetic acid in the striatum: 1680±136 ng/g tissue
[2]
  oral availability (F): 55%
[4]; 50 μmol/kg s.c.
  d-amphetamine induced hyperactivity: 3399±1247 cm/30 min
[5]; habituated rats, 50 μmol/kg s.c.
  locomotor activity of habituated rats: 1300±761 cm/60 min
[3]; 50 μmol/kg s.c.
  spontaneous behavior (distance traveled): 944±114 cm/30 min

## CCCN1CCN(c2ccc(Cl)c([N+](=O)[O-])c2)CC1 [Example 19, 1-(4-Chloro-3-nitro-phenyl)-4-propyl-piperazine]
[1]; 100 μmol/kg s.c.
  3,4-dihydroxyphenyl-acetic acid in the striatum: 1693±104 ng/g tissue
[4]; 100 μmol/kg s.c.
  d-amphetamine induced hyperactivity: 3767±2332 cm/60 min
[3]; n=4
  locomotor activity in nonpretreated rats: 266±89 cm/30 min

## CCCN1[C@H](C)CN(c2ccc(F)c(C(F)(F)F)c2)C[C@@H]1C [Example 34, cis-4-(4-Fluoro-3-trifluoromethyl-phenyl)-2,6-dimethyl-1-propyl-piperazine]
[1]; 33 μmol/kg s.c.
  3,4-dihydroxyphenyl-acetic acid in the striatum: 1278±143 ng/g tissue
[5]; habituated rat, 33 μmol/kg s.c., n=4
  spontaneous behavior in the habituated rat: 919±143 cm/60 min

## CCCN1[C@H](C)CN(c2ccc(Cl)c(Cl)c2)C[C@@H]1C [Example 35, cis-4-(3,4-dichloro-phenyl)-2,6-dimethyl-1-propyl-piperazine]
[4]; 100 μmol/kg s.c.
  d-amphetamine induced hyperactivity: 6514±3374 cm/60 min

## CCCN1CCC(c2ccc(F)c(C(F)(F)F)c2)CC1 [Example 43, 4-(4-Fluoro-3-trifluoromethylphenyl)-1-propyl-piperidine]
[1]; 100 μmol/kg s.c.
  3,4-dihydroxyphenyl-acetic acid in the striatum: 1895±100 ng/g tissue
[3]; n=4
  locomotor activity in nonpretreated rats: 540±128 cm/30 min
